Measured values from ChEMBL document CHEMBL1130991, “Synthesis and antibacterial activity of [6,5,5] and [6,6,5] tricyclic fused oxazolidinones” (Bioorg Med Chem Lett, 1998).
Converted amounts (≈) assume the structure as drawn.

Experiments:
[1] = test system: Staphylococcus epidermidis; assay: Antibacterial activity against Staphylococcus epidermidis UC30031UC; format: functional
[2] = test system: Staphylococcus aureus; assay: Antibacterial activity against Staphylococcus aureus UC9213; format: functional
[3] = test system: Enterococcus faecalis; assay: Antibacterial activity against Enterococcus faecalis UC9217; format: functional
[4] = test system: Bacteroides fragilis; assay: Antibacterial activity against Bacteroides fragilis UC12199; format: functional
[5] = test system: Staphylococcus aureus; assay: Antibacterial activity against Staphylococcus aureus UC12673; format: functional
[6] = test system: Streptococcus pneumoniae; assay: Antibacterial activity against Streptococcus pneumoniae UC9912; format: functional
[7] = test system: Mus musculus; assay: (§1) Effective dose required to inhibit Staphylococcus aureus UC9213 in mice subjected to a lethal systemic infection (when administered orally); format: functional; conditions: po
[8] = test system: Staphylococcus aureus; assay: Effective dose required to inhibit Staphylococcus aureus UC9271 in mice subjected to a lethal systemic infection (when administered orally); format: functional; conditions: po
[9] = test system: Bacteroides fragilis; assay: Compound was evaluated for antibacterial activity against Bacteroides fragilis UC12199 UC (Upjohn Culture); format: functional
[10] = test system: Mus musculus; assay: as §1; format: functional, organism-based
[11] = test system: Staphylococcus aureus; assay: as §1; format: functional; conditions: po
[12] = test system: Mus musculus; assay: Compound was evaluated for antibacterial activity against Staphylococcus aureus UC9213 ((methicillin susceptible) in mice administered orally; format: functional; conditions: po

SMILES	MIC [1] [µg/mL]	MIC [2] [µg/mL]	MIC [3] [µg/mL]	MIC [4] [µg/mL]	MIC [5] [µg/mL]	MIC [6] [µg/mL]	ED50 [7] [mg/kg]	ED50 [8] [mg/kg]	MIC [9] [µg/mL]	EC50 [10] [mg/kg]	ED50 [11] [mg/kg]	ED50 [12] [mg/kg]
CC(=O)NC[C@@H]1OC(=O)N2c3ccc(S(C)(=O)=O)cc3C[C@@H]12	64 (≈ 197 µM)	64 (≈ 197 µM)	64 (≈ 197 µM)	> 32	32 (≈ 98.7 µM)	16 (≈ 49.3 µM)						
CC(=O)NC[C@@H]1OC(=O)N2c3ccc(-c4cccnc4)cc3CC[C@H]12	> 64	> 64	> 64	> 32	> 64	> 64						
CC(=O)NC[C@@H]1OC(=O)N2c3ccc(S(N)(=O)=O)cc3C[C@@H]12	> 64	> 64	> 64	> 32	> 64	> 64						
CC(=O)NC[C@@H]1OC(=O)N2c3ccc(C(C)=O)cc3C[C@@H]12	8 (≈ 27.7 µM)	8 (≈ 27.7 µM)	16 (≈ 55.5 µM)				39.5					
CC(=O)NC[C@@H]1OC(=O)N2c3ccc(-c4cccnc4)cc3CC[C@@H]12	16 (≈ 47.4 µM)	32 (≈ 94.8 µM)	32 (≈ 94.8 µM)	> 32	16 (≈ 47.4 µM)	16 (≈ 47.4 µM)						
CC(=O)NC[C@@H]1OC(=O)N2c3ccc(C(C)=O)cc3CC[C@@H]12	> 16	> 16	> 16	> 16	> 16	> 16						
CC(=O)NC[C@@H]1OC(=O)N2c3ccc(-c4cccnc4)cc3C[C@@H]12	2 (≈ 6.19 µM)	4 (≈ 12.4 µM)	2 (≈ 6.19 µM)	2 (≈ 6.19 µM)	2 (≈ 6.19 µM)		9.4	4.4				
CC(=O)NC[C@@H]1OC(=O)N2c3ccc(S(=O)(=O)N4CCCCC4)cc3C[C@@H]12	> 64	> 64	> 64	> 32	> 64	> 64						
CC(=O)NC[C@@H]1OC(=O)N2c3ccc(S(=O)(=O)NC4CCCC4)cc3C[C@@H]12	> 64	> 64	> 64	> 32	> 64	> 64						
CC(=O)NC[C@@H]1OC(=O)N2c3ccc(S(=O)(=O)N4CCOCC4)cc3C[C@@H]12	> 64	> 64	> 64	> 32	> 64	> 64						
CC(=O)NC[C@@H]1OC(=O)N2c3ccccc3CC[C@H]12	> 64	> 64	> 64	> 32	> 64	> 64						
CC(=O)NC[C@@H]1OC(=O)N2c3ccc(C(C)=O)cc3CC[C@H]12	> 16	> 16	> 16	> 16	> 16	> 16						
CC(=O)NC[C@@H]1OC(=O)N2c3ccccc3C[C@H]12	> 32	> 32	> 32		> 32	> 32			> 32			
CC(=O)NC[C@@H]1OC(=O)N2c3ccc(-c4ccc(C#N)cc4)cc3C[C@@H]12	2 (≈ 5.76 µM)	4 (≈ 11.5 µM)	2 (≈ 5.76 µM)	32 (≈ 92.1 µM)	4 (≈ 11.5 µM)	2 (≈ 5.76 µM)	17.1					
CC(=O)NC[C@@H]1OC(=O)N2c3ccc(C(C)=O)cc3C[C@H]12	> 16	> 16	> 16	> 16	> 16	> 16						
CC(=O)NC[C@@H]1OC(=O)N2c3ccc(S(=O)(=O)Nc4ccccc4)cc3C[C@@H]12	> 64	> 64	> 64	> 32	> 64	> 64						

SMILES	MIC [1] [µg/mL]	MIC [2] [µg/mL]	MIC [3] [µg/mL]	MIC [4] [µg/mL]	MIC [5] [µg/mL]	MIC [6] [µg/mL]	ED50 [7] [mg/kg]	ED50 [8] [mg/kg]	MIC [9] [µg/mL]	EC50 [10] [mg/kg]	ED50 [11] [mg/kg]	ED50 [12] [mg/kg]
CC(=O)NC[C@@H]1OC(=O)N2c3ccc(S(=O)(=O)NCc4ccccc4)cc3C[C@@H]12	> 64	> 64	> 64	> 32	> 64	> 64						
CC(=O)NC[C@@H]1OC(=O)N2c3ccc(-c4ccccc4)cc3C[C@@H]12	2 (≈ 6.2 µM)		4 (≈ 12.4 µM)	32 (≈ 99.3 µM)						> 25		
CC(=O)NC[C@@H]1OC(=O)N2c3ccccc3C[C@@H]12	> 32	> 32	> 32	> 32	> 32	> 32						
CC(=O)NC[C@@H]1OC(=O)N2c3ccc(-c4ccncc4)cc3C[C@@H]12			2 (≈ 6.19 µM)	8 (≈ 24.7 µM)				16.5			6.1	
CC(=O)NC[C@@H]1OC(=O)N2c3ccccc3CC[C@@H]12	> 64	> 64	> 64	> 32	> 64	> 64						
CC(=O)NC[C@@H]1OC(=O)N2c3ccc(N4CCOCC4)cc3C[C@@H]12	32 (≈ 96.6 µM)	64 (≈ 193 µM)	128 (≈ 386 µM)	> 16	64 (≈ 193 µM)	32 (≈ 96.6 µM)						> 20
CC(=O)NC[C@@H]1OC(=O)N2c3ccc(-c4cncnc4)cc3C[C@@H]12	4 (≈ 12.3 µM)	8 (≈ 24.7 µM)	4 (≈ 12.3 µM)	8 (≈ 24.7 µM)	4 (≈ 12.3 µM)		11.4					
CCNS(=O)(=O)c1ccc2c(c1)C[C@H]1[C@H](CNC(C)=O)OC(=O)N21	> 64	> 64	> 64	> 32	> 64	> 64						
CC(=O)NC[C@@H]1OC(=O)N2c3ccc(S(=O)(=O)N(C)C)cc3C[C@@H]12	64 (≈ 181 µM)	64 (≈ 181 µM)	> 64	> 32	64 (≈ 181 µM)	64 (≈ 181 µM)						
CC(=O)NC[C@@H]1OC(=O)N2c3ccc(S(=O)(=O)N(C)CCCO)cc3C[C@@H]12	> 64	> 64	> 64	> 32	> 64	> 64						
CC(=O)NC[C@H]1CN(c2ccc(N3CCOCC3)cc2)C(=O)O1	2 (≈ 6.26 µM)	4 (≈ 12.5 µM)	4 (≈ 12.5 µM)	4 (≈ 12.5 µM)	4 (≈ 12.5 µM)	1 (≈ 3.13 µM)						
CC(=O)NC[C@@H]1OC(=O)N2c3ccc(-c4cccnc4)cc3C[C@@H]12.Cl	1	2	2	4	2	0.5	6					
CC(=O)NC[C@H]1CN(c2ccc(C(C)=O)cc2)C(=O)O1 (racemic) [DUP-721]	4 (≈ 14.5 µM)	2 (≈ 7.24 µM)	8 (≈ 29 µM)	8 (≈ 29 µM)	4 (≈ 14.5 µM)	2 (≈ 7.24 µM)		18.1			9.4	
CC(=O)NCC1OC(=O)N2c3ccc(C(C)=O)cc3CC12 (single isomer, unassigned; (+))	2 (≈ 6.94 µM)	4 (≈ 13.9 µM)	4 (≈ 13.9 µM)	4 (≈ 13.9 µM)	4 (≈ 13.9 µM)	4 (≈ 13.9 µM)						
CC(=O)NC[C@H]1CN(c2ccc(N3CCOCC3)c(F)c2)C(=O)O1 [LINEZOLID]	1 (≈ 2.96 µM)			4 (≈ 11.9 µM)			2					
CN[C@H](CC(C)C)C(=O)N[C@H]1C(=O)N[C@@H](CC(N)=O)C(=O)N[C@H]2C(=O)N[C@H]3C(=O)N[C@H](C(=O)N[C@H](C(=O)O)c4cc(O)cc(O)c4-c4cc3ccc4O)[C@H](O)c3ccc(c(Cl)c3)Oc3cc2cc(c3O[C@@H]2O[C@H](CO)[C@@H](O)[C@H](O)[C@H]2O[C@H]2C[C@](C)(N)[C@H](O)[C@H](C)O2)Oc2ccc(cc2Cl)[C@H]1O [VANCOMYCIN]	0.5 (≈ 0.345 µM)		4 (≈ 2.76 µM)	> 16		0.5 (≈ 0.345 µM)	1.1					
